Results taken from ChEMBL document CHEMBL6092138, “Discovery of the potent covalent inhibitor with an acrylate warhead for SARS-CoV-2 3CL protease” (Bioorg Med Chem Lett, 2024).

How the values were obtained:
[1] = molecular target: Replicase polyprotein 1ab (Severe acute respiratory syndrome coronavirus 2, UniProt P0DTD1); experiment: Inhibition of 6-his taggedSARS-Cov-2 3-CL protease using Dabcyl-KNSTLQSGLRKE-Edans as substrate preincubated for 60 mins followed by substrate addition by fluorescence based analysis
[2] = test system: Human coronavirus OC43; experiment: Antiviral activity against HCoV OC43 infected in human Huh-7 cells assessed as inhibition of viral replication of CPE assay; assay type: functional, organism-based; details: Betacoronavirus 1, Huh-7
[3] = test system: Huh-7; experiment: Cytotoxicity against human Huh-7 cells assessed as reduction in cell viability measured after 7 days by celltiter-glo assay; assay type: functional; details: Huh-7, 168 h, time 7 day
[4] = molecular target: Replicase polyprotein 1ab (Severe acute respiratory syndrome coronavirus 2) (UniProt P0DTD1); experiment: Binding affinity to 6-his taggedSARS-Cov-2 3-CL protease assessed as Kinact/Ki using Dabcyl-KNSTLQSGLRKE-Edans as substrate measured for 120 mins

Compound | IC50 [1] | EC50 [2] | CC50 [3] | K [4]
CC(C)C(=O)N[C@H](C(=O)N1C[C@H]2[C@@H]([C@H]1C(=O)N[C@H](C#N)C[C@@H]1CCNC1=O)C2(C)C)c1cc(Cl)c(OCCN(C)C)c(Cl)c1 | 206 nM |  |  | 
CC(C)(C)[C@H](NC(=O)C(F)(F)F)C(=O)N1C[C@H]2[C@@H]([C@H]1C(=O)N[C@H](C#N)C[C@@H]1CCNC1=O)C2(C)C [NIRMATRELVIR] |  | 72 nM | > 10000 nM | 
CN(C)CCOc1c(Cl)cc([C@H](NC(=O)C(F)F)C(=O)N2C[C@H]3[C@@H]([C@H]2C(=O)N[C@H](C#N)C[C@@H]2CCNC2=O)C3(C)C)cc1Cl | 376 nM |  |  | 
COC(=O)/C=C/[C@H](C[C@@H]1CCNC1=O)NC(=O)[C@@H]1[C@@H]2[C@H](CN1C(=O)[C@@H](NC(=O)C(F)(F)F)C(C)(C)C)C2(C)C | 28.9 nM | 97 nM | > 10000 nM | 17200 M⁻¹ s⁻¹
CC(=O)/C(C)=C\[C@H](C[C@@H]1CCNC1=O)NC(=O)[C@@H]1[C@@H]2[C@H](CN1C(=O)[C@@H](NC(=O)C(F)(F)F)C(C)(C)C)C2(C)C | 50.7 nM |  |  | 
CN(C)CCOc1c(Cl)cc(C(NC(=O)C(C)(C)F)C(=O)N2C[C@H]3[C@@H]([C@H]2C(=O)N[C@H](C#N)C[C@@H]2CCNC2=O)C3(C)C)cc1Cl (stereo not given in full) | 249 nM |  |  | 
CC(C)(C)[C@H](NC(=O)C(F)(F)F)C(=O)N1C[C@H]2[C@@H]([C@H]1C(=O)N[C@H](/C=C/C(N)=O)C[C@@H]1CCNC1=O)C2(C)C | 23.4 nM | 9070 nM | > 10000 nM | 9750 M⁻¹ s⁻¹
CN(C)CCOc1c(Cl)cc([C@H](NC(=O)C(F)(F)F)C(=O)N2C[C@H]3[C@@H]([C@H]2C(=O)N[C@H](C#N)C[C@@H]2CCNC2=O)C3(C)C)cc1Cl | 631 nM |  |  | 
